Patent publication EP3727588B1, “ACTIVATOR PEPTIDES OF THE ENZYME ADAM 10 AND RELATED USES IN THE TREATMENT OF ALZHEIMER'S DISEASE” (UNIVERSITA' DEGLI STUDI DI MILANO, priority 2017, dated 2019)
“And” between values parts separate entries of the source, which are not always exact repeats. Equal values may be shown once. Peptide text beside a SMILES is read from it.

Tests used:
[1] = blood count and platelet count after 14 days' treatment; assay type: in vivo, mice; design: key to Aggregate s: +, ++, +++ considering the presence of platelet aggregates detected in the blood smear that make the analysis difficult; +, ++, +++ considering the presence of platelet aggregates detected in the blood smear that make the analysis difficult; +, ++, +++ considering the presence of platelet aggregates detected in the blood smear that make the analysis difficult; key to Estimate Plt: A= appropriate platelet estimate
Method: (§1) C57/BL6 adult mice were treated for 14 days with daily intraperitoneal injection of saline solution or peptides at a dose of 3 nmol/g (6-10 animals per experimental group). The animals were maintained in an enclosure at 25 ± 2 °C with an alternating light/dark cycle of 12 hours and had free access to water and food in the form of pellets (standard diet).
(§2) The blood, collected through cardiac puncture, was analysed with a laser counter (ADVIA 120, Siemens) using specific software for the murine species. From each sample a blood smear was prepared, stained with the May Grünwald-Giemsa method, and used for the morphological analysis of the leukocytes, the red blood cells and the platelet estimate. After the automatic counting of the cells and the preparation of the smear, all the samples were centrifuged and the plasma was transferred into separate test tubes. The analysis of the plasma samples was performed through automatic spectrophotometer (ILAB-300, Instrumentation Laboratory). All the results were compared with the values provided by the company Charles River for mice of the same strain and age.
The range values are provided by Charles River for C57BL mice aged between 56-70 days, whose blood was collected by cardiac puncture after euthanasia.

ADAM10/AP2 complex = target: T1, ADAM10/AP2 complex (Rattus norvegicus, UniProt P62944); test: co-immunoprecipitation of ADAM10 with AP2 subunits in primary cultures of hippocampal neurons; assay type: cell-based
T1 construct: endogenous in cells; host or cells: primary hippocampal neurons of rat embryos, DIV14
Method: The primary cultures were prepared from hippocampi of rat embryos as described in [20]. The cultures were grown in media containing Neurobasal (Life Technologies), B27 2% (Life Technologies), GlutaMAX 1% (Life Technologies) and Penicillin/Streptomycin 1% (Pen/Strep; Life Technologies), a 37 °C with 95% humidity and 5% CO2 for 14 days. The cells were treated by diluting the peptides in the complete growth medium, at a final concentration of 1 µM. The treatment was performed for 30 minutes at 37°C, then the neurons were lysed.
For the co-immunoprecipitation experiments, aliquots of 40-100 µg of lysate were incubated at 4°C in RIA 1X buffer (NaCl 200 mM, EDTA 10 mM, Na2HPO4 10 mM, Nonidet P-40, 0.5% and 0.1% SDS) in a final volume of 150 µl with 1-2 µg of antibody. The following day the protein complex A/G (Santa Cruz Biotechnology) was added, conjugated with agarose marbles, and the incubation was continued for 2 hours. After three washes with RIA buffer the samples were loaded onto SDS-PAGE and analysed through Western Blot.
The quantization of the Western Blot analyses was performed through an image analysis program (ImageLab -BioRad). The levels of proteins were expressed as optical density (OD) related to the different measurements and were normalized on respective tubulin levels.
After 30 minutes, the cells were processed and the cell lysate was used for performing the co-IP analyses.

[2] = leukogram (white blood cell count) after 14 days' treatment; assay type: in vivo, mice
Method: as §1, §2
Except for the basophils and eosinophils, the total count and white blood cell (WBC) differential is lower with respect to the range values in all the animals treated. However, we noticed that the reference range values provided by the company Charles River are particularly high with respect to other values provided for other control groups and in other scientific articles in which the same animal strain is analysed. Justification for these differences found is provided by the pre-analytical factors used by Charles River in determining the different reference ranges (such as the method used, the type of sampling used, etc.). Despite this, the analyses of the data performed both individually and by examining the mean and median values in the different groups, show some differences in the values referring to mice treated with the active peptide with respect to the control mice (Table 2).
The following Table 2 illustrates the results of the white blood cell count. The reference values are provided by Charles River for C57BL mice of 56-70 days.

[3] = Novel Object Recognition Test (NORT), C57BL/6 mice; assay type: in vivo; details: 14 days' treatment
Method: as §1
After 14 days of treatment the animals were subjected to the Novel Object Recognition Test (NORT). Such test is structured in three phases: habituation, familiarization and testing. In the first phase, the animal is placed in an empty arena and left free to explore the environment for 5 minutes. The day after, during the familiarization phase, the animal is placed in the same arena in the presence of two objects, identical in shape and size, for 10 minutes. Then the time spent by the animal exploring the individual object is recorded. On the third day, the animal is placed in the area in the presence of an identical object to that used in the familiarization phase and a new one. In this phase the difference in time spent by the animal exploring the familiar object and the new object is evaluated. […] In both phases of the test, the objects are positioned symmetrically and opposite inside the arena, and all the sessions are recorded with the aid of a video camera. […]

[4] = individual animal, 14 days, daily intraperitoneal 3 nmol/g
[5] = primary cultures of neurons, 1µM, 30 min
[6] = primary hippocampal neurons DIV 14, 1 µM, 30 minutes

T1 sequence (P18484 whole entry): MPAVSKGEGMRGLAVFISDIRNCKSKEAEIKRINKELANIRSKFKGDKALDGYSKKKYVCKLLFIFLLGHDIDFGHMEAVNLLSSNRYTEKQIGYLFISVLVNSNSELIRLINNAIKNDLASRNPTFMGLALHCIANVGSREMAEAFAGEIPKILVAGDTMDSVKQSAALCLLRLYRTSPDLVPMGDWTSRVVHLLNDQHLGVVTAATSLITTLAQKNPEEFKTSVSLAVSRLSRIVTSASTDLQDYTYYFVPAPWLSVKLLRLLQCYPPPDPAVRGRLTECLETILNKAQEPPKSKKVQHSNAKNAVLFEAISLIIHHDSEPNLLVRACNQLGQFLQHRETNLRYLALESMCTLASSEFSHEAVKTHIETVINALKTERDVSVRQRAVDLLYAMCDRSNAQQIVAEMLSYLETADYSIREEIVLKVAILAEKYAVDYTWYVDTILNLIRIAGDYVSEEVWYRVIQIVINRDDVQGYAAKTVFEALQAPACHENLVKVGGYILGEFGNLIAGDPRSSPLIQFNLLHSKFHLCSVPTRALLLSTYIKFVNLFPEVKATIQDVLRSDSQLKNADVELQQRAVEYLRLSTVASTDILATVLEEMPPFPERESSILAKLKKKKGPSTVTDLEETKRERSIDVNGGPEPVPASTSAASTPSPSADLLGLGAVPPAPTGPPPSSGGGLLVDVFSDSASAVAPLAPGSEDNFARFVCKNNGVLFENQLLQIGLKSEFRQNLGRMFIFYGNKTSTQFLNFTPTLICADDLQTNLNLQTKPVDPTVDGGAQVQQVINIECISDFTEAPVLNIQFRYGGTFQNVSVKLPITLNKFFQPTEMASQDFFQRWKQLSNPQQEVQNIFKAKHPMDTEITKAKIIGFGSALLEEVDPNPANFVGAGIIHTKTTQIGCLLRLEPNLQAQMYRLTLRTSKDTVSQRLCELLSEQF
T1 sequence (P62744 whole entry, further chain): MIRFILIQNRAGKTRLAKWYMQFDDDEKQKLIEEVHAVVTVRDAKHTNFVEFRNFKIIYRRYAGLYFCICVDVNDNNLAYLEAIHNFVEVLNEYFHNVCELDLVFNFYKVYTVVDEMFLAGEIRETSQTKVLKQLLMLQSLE
T1 sequence (P84092 whole entry, further chain): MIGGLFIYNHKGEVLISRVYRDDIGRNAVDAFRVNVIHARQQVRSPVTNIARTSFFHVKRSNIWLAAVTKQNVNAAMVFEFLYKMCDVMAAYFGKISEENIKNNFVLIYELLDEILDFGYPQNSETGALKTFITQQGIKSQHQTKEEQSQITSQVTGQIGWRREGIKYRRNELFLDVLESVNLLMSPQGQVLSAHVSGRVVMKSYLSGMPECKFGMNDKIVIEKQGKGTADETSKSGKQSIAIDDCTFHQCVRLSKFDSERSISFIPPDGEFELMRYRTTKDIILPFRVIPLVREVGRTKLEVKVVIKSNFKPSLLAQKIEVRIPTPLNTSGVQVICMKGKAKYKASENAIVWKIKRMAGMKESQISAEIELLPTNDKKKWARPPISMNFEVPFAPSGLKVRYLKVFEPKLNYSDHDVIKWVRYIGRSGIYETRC
T1 sequence (P62944 whole entry): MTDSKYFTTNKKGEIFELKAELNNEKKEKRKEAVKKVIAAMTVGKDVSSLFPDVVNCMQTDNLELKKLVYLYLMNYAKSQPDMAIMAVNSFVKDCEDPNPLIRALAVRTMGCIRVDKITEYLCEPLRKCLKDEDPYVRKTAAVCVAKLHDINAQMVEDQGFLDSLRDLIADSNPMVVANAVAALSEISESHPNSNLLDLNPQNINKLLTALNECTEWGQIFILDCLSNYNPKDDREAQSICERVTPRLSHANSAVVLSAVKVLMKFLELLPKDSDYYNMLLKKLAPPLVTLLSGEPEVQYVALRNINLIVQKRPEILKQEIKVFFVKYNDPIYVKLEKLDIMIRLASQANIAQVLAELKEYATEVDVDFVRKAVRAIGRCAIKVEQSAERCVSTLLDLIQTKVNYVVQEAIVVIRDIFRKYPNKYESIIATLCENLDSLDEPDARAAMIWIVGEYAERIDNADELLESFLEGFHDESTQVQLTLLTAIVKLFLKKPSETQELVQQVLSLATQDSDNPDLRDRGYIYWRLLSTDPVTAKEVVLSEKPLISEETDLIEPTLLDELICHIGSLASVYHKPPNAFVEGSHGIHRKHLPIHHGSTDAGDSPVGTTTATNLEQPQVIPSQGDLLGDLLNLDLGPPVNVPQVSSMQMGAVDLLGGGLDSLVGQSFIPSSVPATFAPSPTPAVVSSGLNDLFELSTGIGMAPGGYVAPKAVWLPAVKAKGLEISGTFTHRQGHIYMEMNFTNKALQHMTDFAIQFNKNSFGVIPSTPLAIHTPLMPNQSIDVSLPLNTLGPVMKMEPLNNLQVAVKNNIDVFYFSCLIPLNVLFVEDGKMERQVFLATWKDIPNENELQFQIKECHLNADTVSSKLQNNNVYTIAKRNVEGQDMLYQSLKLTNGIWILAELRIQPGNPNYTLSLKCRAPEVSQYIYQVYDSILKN

N=C(N)NCCC[C@H](NC(=O)CNC(=O)[C@@H](N)Cc1ccc(O)cc1)C(=O)N[C@@H](CCCCN)C(=O)N[C@@H](CCCCN)C(=O)N[C@@H](CCCNC(=N)N)C(=O)N[C@@H](CCCNC(=N)N)C(=O)N[C@@H](CCC(N)=O)C(=O)N[C@@H](CCCNC(=N)N)C(=O)N[C@@H](CCCNC(=N)N)C(=O)N[C@@H](CCCNC(=N)N)C(=O)NCC(=O)NCC(=O)N[C@@H](CO)C(=O)NCC(=O)N[C@@H](CCC(N)=O)C(=O)N1CCC[C@H]1C(=O)N1CCC[C@H]1C(=O)N[C@@H](CCCNC(=N)N)C(=O)N[C@@H](CCC(N)=O)C(=O)N[C@@H](CCCNC(=N)N)C(=O)N1CCC[C@H]1C(=O)N[C@@H](CCCNC(=N)N)C(=O)NCC(=O)O [PEP3] (H-YGRKKRRQRRRGGSGQPPRQRPRG-OH)
(Ht) ([1]; group mean): 46.2% | Hb ([1]; group mean): 11.8 g/dL | Mean Corpuscula r Hb (MCH) ([1]; group mean): 13.5 pg | Mean Corpuscula r Hb Conc. MCHC ([1]; group mean): 25.6% | Platelet count ([1]; group mean): 999000 µL⁻¹ | Red blood cells ([1]; group mean): 8.74e+06 µL⁻¹ | Red cell distribution width (RDW) ([1]; group mean): 19.5% | Vol. Mean Corp. Vol. (MCV) ([1]; group mean): 52.9 fL | (Ht) ([1]; group median): -46.9% | Hb ([1]; group median): -11.9 g/dL | Mean Corpuscula r Hb Conc. MCHC ([1]; group median): -25.8% | Platelet count ([1]; group median): -1.082e+06 µL⁻¹ | Red blood cells ([1]; group median): -8.8e+06 µL⁻¹ | Red cell distribution width (RDW) ([1]; group median): -19.7% | Vol. Mean Corp. Vol. (MCV) ([1]; group median): -53.1 fL | Estimate Plt ([1]; individual animal, blood smear, first part of cell): A | Aggregate s ([1]; individual animal, blood smear, second part of cell): +++ | (Ht) [1, 4]: 41.5% and 47.4% and 48.5% and 48% and 46.3% and 45.7% | Hb [1, 4]: 10.9 g/dL and 11.7 g/dL and 12.5 g/dL and 11.9 g/dL (3×) | Mean Corpuscula r Hb (MCH) [1, 4]: 13.4 Pg (2×) and 13.8 Pg and 13.3 Pg and 13.5 Pg and 13.6 Pg | Mean Corpuscula r Hb Conc. MCHC [1, 4]: 26.3% and 24.7% and 25.8% and 24.8% and 25.7% and 26% | Platelet count [1, 4]: 861000 µL⁻¹ and 711000 µL⁻¹ and 1.333e+06 µL⁻¹ and 391000 µL⁻¹ and 1.302e+06 µL⁻¹ and 1.394e+06 µL⁻¹ | Red blood cells [1, 4]: 8.14e+06 µL⁻¹ and 8.75e+06 µL⁻¹ and 9.04e+06 µL⁻¹ and 8.94e+06 µL⁻¹ and 8.84e+06 µL⁻¹ and 8.72e+06 µL⁻¹ | Red cell distribution width (RDW) [1, 4]: 18.7% and 19.3% and 19.9% (2×) and 19.7% (2×) | Vol. Mean Corp. Vol. (MCV) [1, 4]: 51 fL and 54.2 fL and 53.7 fL (2×) and 52.4 fL (2×) | PEP/inPEP OD, ADAM10/AP2 complex, µ2 (ADAM10/AP2 complex; [5]): 22.43 ± 1.25% | PEP/inPEP OD, ADAM10/AP2 complex, α-adaptin (ADAM10/AP2 complex; [5]): 10.84 ± 5.61% | reduction in the levels of interaction between ADAM10 and the complex AP2, subunit µ2 (ADAM10/AP2 complex; [6]): 78% | reduction in the levels of interaction between ADAM10 and the complex AP2, subunit α-adaptin (ADAM10/AP2 complex; [6]): 89% | immune / allergic reactions inferred from leukogram ([2]; 14 days' treatment, said not biologically significant): leads to the development of specific immunity and to the possibility of developing possible allergic/hypergic reactions | Basophils ([2]; group mean): 10 µL⁻¹ | Eosinophils ([2]; group mean): 90 µL⁻¹ | Lymphocytes ([2]; group mean): 4460 µL⁻¹ | Monocytes ([2]; group mean): 200 µL⁻¹ | Neutrophils ([2]; group mean): 530 µL⁻¹ | White blood cells ([2]; group mean): 5290 µL⁻¹ | Basophils ([2]; group median): 0 µL⁻¹ | Eosinophils ([2]; group median): (-0.08). x10^3/µL | Lymphocytes ([2]; group median): (-4.32). x10^3/µL | Monocytes ([2]; group median): (-0.23). x10^3/µL | Neutrophils ([2]; group median): (-0.54). x10^3/µL | White blood cells ([2]; group median): (-5.21). x10^3/µL | Basophils [2, 4]: 0 µL⁻¹ and 40 µL⁻¹ | Eosinophils [2, 4]: 140 µL⁻¹ and 60 µL⁻¹ and 90 µL⁻¹ and 40 µL⁻¹ and 120 µL⁻¹ and 70 µL⁻¹ | Lymphocytes [2, 4]: 5740 µL⁻¹ and 2650 µL⁻¹ and 3820 µL⁻¹ and 3720 µL⁻¹ and 4810 µL⁻¹ and 6010 µL⁻¹ | Monocytes [2, 4]: 270 µL⁻¹ and 60 µL⁻¹ and 180 µL⁻¹ and 130 µL⁻¹ and 290 µL⁻¹ and 280 µL⁻¹ | Neutrophils [2, 4]: 680 µL⁻¹ and 340 µL⁻¹ and 460 µL⁻¹ and 440 µL⁻¹ and 650 µL⁻¹ and 630 µL⁻¹ | White blood cells [2, 4]: 6830 µL⁻¹ and 3120 µL⁻¹ and 4550 µL⁻¹ and 4380 µL⁻¹ and 5870 µL⁻¹ and 6990 µL⁻¹ | time exploring the new object [3]: 63.52 ± 4.69%
